Consider 10 compounds from patent US10005733B2, “N-(4-hydroxy-4-methyl-cyclohexyl)-4-phenyl-benzenesulfonamide and N-(4-hydroxy-4-methyl-cyclohexyl)-4-(2-pyridyl)-benzenesulfonamide compounds and their therapeutic use” (PIMCO 2664 LIMITED, priority 2014, dated 2018).

As usually defined, the IC50 is the concentration needed to halve the response being measured.

Common to all, as to assay type: in vitro ADME
Conditions in all cases: recombinant Bactosomes, probe substrate, 10 minutes at 37° C.

The target in one test is T1, CYP2C19 (Homo sapiens, UniProt P33261).
T1 construct: purchased Cypex Ltd, Dundee, Scotland UK
Kind of test: Human Cytochrome P450 Inhibition Assay (Bactosomes), CYP2C19. As to the method: (§1) The ability of test compounds to inhibit five of the most relevant cytochrome P450 enzymes was measured by determination of the activity of cytochrome P450 enzymes in recombinant cytochrome preparations, called Bactosomes (Cypex Ltd, Dundee, Scotland UK DD2 1NH), in the presence of a specific probe substrate. Bactosomes are a highly efficient and cost-effective source of recombinant CYP450s which have a higher specific activity of enzyme compared to other sources, such as liver microsomes. […] The following CYP450 isoforms were assayed: CYP1A2, CYP2C9, CYP2C19, CYP2D6 and CYP3A4. The study of CYP450 inhibition potential in Bactosomes is accepted as a valuable model permitting rapid prediction of potential drug-drug interactions in vivo (see, e.g., Weaver et al., 2003).
(§2) Bactosomes were obtained from a commercial source (Cypex, Scotland, UK). Test compounds were incubated with Bactosomes at 6 concentrations. Samples were incubated for 10 minutes, after which the reaction was stopped and the samples analysed by LC-MS/MS Multiple Reaction Monitoring (MRM) for the presence/amount of substrate probe.
(§3) CYP450 enzymes (final protein 75 pmol/mL for CYP1A2; 12.5 pmol/mL for CYP2C19; and 25 pmol/mL for CYP2C9, 2D6 and 3A4), 0.1 M phosphate buffer pH 7.4, probe and test compound (final concentration 50, 15.8, 5, 1.58, 0.5 and 0.158 μM; diluted from 10 mM stock solution to give a final DMSO concentration of 1%) were pre-incubated at 37° C. for 5 minutes. The reaction was initiated by the addition of 20 μL of 10 mM NADPH in phosphate buffer. The final incubation volume was 200 μL. The following control inhibitors were used for each CYP450 inhibition assay: CYP1A2: α-naphthoflavone; CYP2C9: sulfaphenazole; CYP2C19: tranylcypromine; CYP2D6: quinidine; CYP3A4: ketoconazole.
(§4) Each compound was incubated for 10 minutes at 37° C. The reactions were stopped by the addition of methanol (final composition 1:1, aqueous: methanol). The incubation plates were shaken, chilled at […] for 2 hours, and centrifuged at 3500 rpm for 15 minutes at 4° C. to precipitate the protein.
(§5) IC50 values were determined by linear transformation within Microsoft Excel.

The target of the next test is T2, CYP3A4 (Homo sapiens, UniProt P08684).
T2 construct: purchased Cypex Ltd, Dundee, Scotland UK
Put plainly: Human Cytochrome P450 Inhibition Assay (Bactosomes), CYP3A4. The protocol:
as §1, §2, §3, §4, §5

Another test deals with T3, CYP1A2 (Homo sapiens, UniProt P05177).
T3 construct: purchased Cypex Ltd, Dundee, Scotland UK
T3 sequence (P05177 1-516): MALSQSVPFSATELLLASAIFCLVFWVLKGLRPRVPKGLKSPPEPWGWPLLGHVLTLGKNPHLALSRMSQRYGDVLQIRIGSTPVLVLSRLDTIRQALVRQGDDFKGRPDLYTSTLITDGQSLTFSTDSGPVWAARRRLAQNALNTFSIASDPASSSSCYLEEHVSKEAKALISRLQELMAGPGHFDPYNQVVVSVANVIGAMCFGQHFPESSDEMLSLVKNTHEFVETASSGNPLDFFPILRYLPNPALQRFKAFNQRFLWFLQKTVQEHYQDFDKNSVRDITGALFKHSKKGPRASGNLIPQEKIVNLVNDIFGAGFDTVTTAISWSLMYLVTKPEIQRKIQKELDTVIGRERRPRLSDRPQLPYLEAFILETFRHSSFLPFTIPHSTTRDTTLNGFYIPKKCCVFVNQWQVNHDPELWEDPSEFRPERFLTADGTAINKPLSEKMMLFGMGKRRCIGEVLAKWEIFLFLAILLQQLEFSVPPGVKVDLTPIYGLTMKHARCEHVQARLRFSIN
Put plainly: Human Cytochrome P450 Inhibition Assay (Bactosomes), CYP1A2. As to the method: as §1, §2, §3, §4, §5

T2 sequence (P08684 whole entry): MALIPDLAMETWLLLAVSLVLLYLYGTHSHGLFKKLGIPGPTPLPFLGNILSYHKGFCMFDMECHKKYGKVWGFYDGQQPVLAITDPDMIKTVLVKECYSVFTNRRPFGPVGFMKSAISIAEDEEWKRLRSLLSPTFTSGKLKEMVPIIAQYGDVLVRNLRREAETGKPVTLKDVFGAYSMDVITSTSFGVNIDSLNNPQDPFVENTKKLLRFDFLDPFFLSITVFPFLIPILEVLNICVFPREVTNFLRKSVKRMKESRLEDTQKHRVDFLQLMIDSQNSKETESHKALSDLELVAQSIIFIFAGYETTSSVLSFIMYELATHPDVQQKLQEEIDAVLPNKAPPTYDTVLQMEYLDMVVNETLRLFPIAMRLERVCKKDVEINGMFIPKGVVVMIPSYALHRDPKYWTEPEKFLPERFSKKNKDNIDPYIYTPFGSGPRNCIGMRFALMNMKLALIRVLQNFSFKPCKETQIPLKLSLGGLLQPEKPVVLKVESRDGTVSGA
T1 sequence (P33261 whole entry): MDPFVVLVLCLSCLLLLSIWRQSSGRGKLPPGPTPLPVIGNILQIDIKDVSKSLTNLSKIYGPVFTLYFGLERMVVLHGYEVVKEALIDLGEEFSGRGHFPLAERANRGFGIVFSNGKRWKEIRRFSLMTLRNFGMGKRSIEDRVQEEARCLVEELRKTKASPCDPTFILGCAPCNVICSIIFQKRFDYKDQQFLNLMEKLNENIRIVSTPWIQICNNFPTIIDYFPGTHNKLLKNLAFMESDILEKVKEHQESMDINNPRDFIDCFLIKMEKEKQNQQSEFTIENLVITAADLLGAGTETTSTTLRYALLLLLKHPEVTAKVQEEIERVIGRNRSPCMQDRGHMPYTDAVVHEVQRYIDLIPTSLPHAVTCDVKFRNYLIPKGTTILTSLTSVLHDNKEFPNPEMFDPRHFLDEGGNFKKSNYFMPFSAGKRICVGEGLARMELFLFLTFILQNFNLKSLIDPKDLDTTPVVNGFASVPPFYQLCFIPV

In the case of `C[C@]1(O)CC[C@H](NS(=O)(=O)c2ccc(-c3ccc(Cl)cc3C#N)c(F)c2)CC1` [HMC-C-08-A, 4′-Chloro-2′-cyano-2-fluoro-N-((1r,4r)-4-hydroxy-4-methylcyclohexyl)-[1,1′-biphenyl]-4-sulfonamide], the IC50 at CYP2C19 was 30 µM; at CYP3A4, 29 µM; at CYP1A2, 27 µM.
With `C[C@]1(O)CC[C@H](NS(=O)(=O)c2ccc(-c3ccc(C#N)cc3)c(F)c2)CC1` [HMC-C-07-A, 4′-Cyano-2-fluoro-N-((1r,4r)-4-hydroxy-4-methylcyclohexyl)-[1,1′-biphenyl]-4-sulfonamide], the IC50 at CYP2C19, on CYP3A4 and on CYP1A2 was more than 50 µM each time.
On to `O=S(=O)(N[C@H]1CC[C@H](O)CC1)c1ccc(-c2ccc(F)cc2F)cc1` [ABD599, reference compound], for which the IC50 on CYP2C19, on CYP3A4 and at CYP1A2 was more than 25 µM throughout.
For `C[C@]1(O)CC[C@@H](NS(=O)(=O)c2ccc(-c3ccc(F)cc3F)cc2)CC1` [ABD899, reference compound], the IC50 at CYP2C19 was 7.3 µM; at CYP3A4 it was 21.6 µM; on CYP1A2, more than 25 µM.
Take `C[C@]1(O)CC[C@@H](NS(=O)(=O)c2ccc(-c3ccc(C#N)cc3)c(F)c2)CC1` [HMC-C-07-B, 4′-Cyano-2-fluoro-N-((1s,4s)-4-hydroxy-4-methylcyclohexyl)-[1,1′-biphenyl]-4-sulfonamide]: the IC50 at CYP2C19, on CYP3A4 and on CYP1A2 was more than 50 µM each time.
For the compound `C[C@]1(O)CC[C@@H](NS(=O)(=O)c2ccc(-c3cc(F)c(F)cc3F)cc2)CC1` [HMC-C-10-B, 2′,4′,5′-Trifluoro-N-((1s,4s)-4-hydroxy-4-methylcyclohexyl)-[1,1′-biphenyl]-4-sulfonamide], the figures for the IC50 at CYP2C19, at CYP3A4 and on CYP1A2 were 8.5 µM, 9.2 µM and more than 16 µM, respectively.
In the case of `C[C@]1(O)CC[C@H](NS(=O)(=O)c2ccc(-c3ncc(Cl)cc3C#N)cc2)CC1` [HMC-N-05-A, 4-(5-Chloro-3-cyanopyridin-2-yl)-N-((1r,4r)-4-hydroxy-4-methylcyclohexyl)benzenesulfonamide], the values for the IC50 at CYP2C19, on CYP3A4 and at CYP1A2 were more than 50 µM, more than 50 µM and 36 µM, respectively.
`C[C@]1(O)CC[C@H](NS(=O)(=O)c2ccc(-c3ccc(C#N)cc3Cl)cc2)CC1` [HMC-C-09-A, 2′-Chloro-4′-cyano-N-((1r,4r)-4-hydroxy-4-methylcyclohexyl)-[1,1′-biphenyl]-4-sulfonamide]: the IC50 at CYP2C19 was more than 50 µM; at CYP3A4 it was 33 µM; on CYP1A2 it was 23 µM.
Turning to `Cc1cc(S(=O)(=O)N[C@H]2CC[C@H](O)CC2)ccc1-c1ccc(F)cc1F` [ABD735, reference compound], the concentration for half-maximal inhibition (IC50) on CYP2C19, on CYP3A4 and at CYP1A2 was more than 25 µM each time.
As to `C[C@]1(O)CC[C@H](NS(=O)(=O)c2ccc(-c3ccc(Cl)cc3C#N)c(Cl)c2)CC1` [HMC-C-11-A, 2,4′-Dichloro-2′-cyano-N-((1r,4r)-4-hydroxy-4-methylcyclohexyl)-[1,1′-biphenyl]-4-sulfonamide], the IC50 on CYP2C19 amounted to 5.1 µM; at CYP3A4, 12 µM; at CYP1A2, 11 µM.
